Measured values as given in patent publication US20110082101A1, “COMBINATIONS COMPRISING EPOTHILONES AND ANTI-METABOLITES” (priority 2002, published 2011).

Key:
advanced renal cancer = experiment: Treatment of a human patient having advanced renal cancer with epothilone B plus capecitabine; format: in vivo; conditions: Example 1, one human patient, combination: epothilone B 0.5 mg/m^2 five minutes bolus infusion weekly for 3 weeks, one week off, plus capecitabine orally 1250 mg/m^2 twice daily for two weeks, cycle repeated several times
Description: A human patient having advanced renal cancer receives 0.5 mg/m^2 of epothilone B as a five minutes bolus infusion weekly for 3 weeks followed by one week off. Starting in the second week of the epothilone treatment and at least two hours after said treatment, capecitabine is applied orally to said patient twice daily at a dosage of 1250 mg/m^2 for two weeks followed by one week off. The whole treatment cycle is applied to the patient several times. Stable disease is observed for about 8 months.

advanced colon cancer = experiment: Treatment of a human patient having advanced colon cancer with epothilone B plus gemcitabine hydrochloride; format: in vivo; conditions: Example 5, one human patient, combination: epothilone B 0.5 mg/m^2 five minutes bolus infusion weekly for 3 weeks, one week off, plus gemcitabine hydrochloride 800 mg/m^2 twice daily, cycle repeated several times
Description: A human patient having advanced colon cancer receives 0.5 mg/m^2 of epothilone B as a five minutes bolus infusion weekly for 3 weeks followed by one week off. Immediately following said treatment, gemcitabine hydrochloride is applied orally to said patient twice daily at a dosage of 800 mg/m^2. The whole treatment cycle is applied to the patient several times. Stable disease is observed for about […] months.

Compound: C/C(=C\c1csc(C)n1)[C@@H]1C[C@@H]2O[C@]2(C)CCC[C@H](C)[C@H](O)[C@@H](C)C(=O)C(C)(C)[C@@H](O)CC(=O)O1 [epothilone B]
- Stable disease observed for (duration) (advanced renal cancer): about 8 months
- Stable disease observed for (duration) (advanced colon cancer): about 3%
